Experimental data as given in US20080261895A1 (Wyeth, priority 2006, published 2008).
“And” between values parts separate entries of the source, which are not always exact repeats. Equal entries are not always repeated. Marks after values point to notes of the source that are not given here.

Columns and labels:
[1] = Urinary excretion and metabolite profile by radiochromatography, dogs; assay type: in vivo, beagle dogs; conditions: single oral 30 mg/kg
Procedure: (§1) For each dog, urine and feces were collected separately, with urine collected on dry ice and feces collected at room temperature. Collections were from 0-8 and 8-24 hours for urine and 0-24 hours for feces. Urine and fecal samples were shipped on dry ice to Wyeth Research, Biotransformation Division (Collegeville, Pa.) for analysis. Fecal samples were homogenized in approximately five volumes (v/w) of water. Aliquots of approximately 0.2 grams of the homogenate were placed into combusto-cones, weighed and allowed to air dry. These samples were then oxidized and radioactivity content determined. The remaining urine samples and fecal homogenates were stored at −70° C. until metabolite analysis. Blood samples and fecal homogenates were oxidized in a Model 307 Tri-Carb sample oxidizer, using Carbosorb® E (6 mL) as trapping agent and PermaFluor® E^+ (10 mL) as scintillant. The background reading (average of control blood or fecal samples) was subtracted from each sample reading. Aliquots of urine and plasma were analyzed directly following the addition of 10 mL of Ultima Gold™ scintillation fluid.
Urine samples collected between 8 and 24 hours post-dose were analyzed for metabolite profiles. Aliquots of urine were centrifuged at 14000 rpm in an Eppendorf Model 5415C centrifuge for 10 minutes. The supernatant was transferred to a fresh tube and analyzed for radioactivity content and by HPLC for metabolite profiling. Selected samples were also analyzed by LC/MS to characterize the radioactive peaks.
(§2) Chromatographic analyses were performed with a Waters Alliance model 2690 HPLC system (Waters Corp., Milford, Mass.). It was equipped with a built-in autosampler and was in-line with a model 2487 tunable UV detector, set to monitor 225 nm, and a FloOne β Model 515 radioactivity flow detector (Perkin Elmer) with a 250 μL LQTR flow cell. The flow rate of Ultima Flow M scintillation fluid was 3 mL/min, providing a mixing ratio of scintillation cocktail to mobile phase of 3:1. Separation of the metabolite peaks was accomplished on a Phenomenex Luna C18(2) column, 250×4.6 mm, 5 micron (Phenomenex, Torrance, Calif.), using a linear gradient of two mobile phases, A and B. Mobile phase A was 10 mM ammonium acetate, pH 5.5, and mobile phase B was acetonitrile. The flow rate was 1 mL/min.

[2] = Whole blood and plasma radioactivity and partitioning after single oral [14C]DVS, dogs; assay type: in vivo, beagle dogs; conditions: single oral 30 mg/kg; for Radioactivity in Plasma, Individual Dogs / Radioactivity in Plasma, Mean ± S.D. / Radioactivity in Whole Blood, Individual Dogs: listed as [^14C]DVS, 30 mg/kg
Procedure: Male beagle dogs (n=4), weighing between 14.4 and 16.2 kg at the time of dosing (from an in-house colony), were used. For ease of reporting, the animals were designated numbers 5 through 8. Dose preparation, animal dosing and sample collection were performed at Wyeth Research, Pearl River, N.Y.
The oral dosing solution was prepared by suspending 19.0 mg of [^14C]DVS and 4168.3 mg of unlabeled DVS in 270 mL of vehicle (0.25% polysorbate 80, 0.5% methylcellulose in water). The radiochemical purity, specific activity and concentration of [^14C]DVS (bulk drug and dosing solution) were determined using HPLC with radiometric detection. Duplicate aliquots of the dosing solution were taken pre-, mid- and post-dose for the determination of specific activity and radioactivity concentrations of the dosing solution.
The target dose for each animal was 30 mg/kg (free base; 10 mg/mL, 3 mL/kg, 30 μCi/kg) [^14C]DVS via oral gavage. The target dose was selected because it has been used in previous pharmacokinetic studies.
Whole blood (approximately 10 mL), collected into heparinized tubes at 1, 4, 8, and 24 hours post-dose (N=4 for each time point), was analyzed. One mL of blood was transferred to a fresh tube to be used for determination of radioactivity concentrations. Plasma was obtained by centrifugation at 4° C. within two hours of blood collection. Plasma and whole blood samples were shipped on dry ice to Wyeth Research, Biotransformation Division (Collegeville, Pa.) for analysis. Triplicate aliquots of whole blood (200 μL) were placed into combusto-cones and allowed to air dry. These samples were then oxidized and radioactivity content determined. Triplicate aliquots (100 μL) of the plasma samples were analyzed for radioactivity content. The remaining plasma was stored at −70° C. until metabolite analysis.
as §1
All radioactivity determinations were made using a Tri-Carb Model 3100TR liquid scintillation counter (Packard BioScience, Boston, Mass.) with an Ultima GOl™ or toluene standard curve. Counts per minute (CPM) were converted to disintegrations per minute (DPM) by use of external standards of known radioactivity. The quench of each standard was determined by the transformed spectral index of an external radioactive standard (tSIE). The lower limits of detection were defined as twice background.

[3] = Urinary excretion and metabolite profile by radiochromatography, rats; assay type: in vivo, Sprague Dawley rats; conditions: for Compounds Detected by Radiochromatography in urine (Mean ± S.D., n = 3), percent of total peaks / Radioactivity as % of Dose in urine, Mean ± S.D. / Radioactivity as % of Dose in urine, Individuals: single oral 20 mg/kg; for Radioactivity as % of Dose in urine, Individuals: listed as [^14C]DVS, 20 mg/kg
Procedure: Urine and feces were collected separately on dry ice from three animals per sex. Collections were from 0-8 and 8-24 hours for male rats and 0-8 hours for female rats. Fecal samples were homogenized in approximately five volumes (v/w) of water. Aliquots of approximately 0.4 grams of the homogenate were placed into combusto-cones, weighed and allowed to air dry. These samples were then oxidized. The remaining urine samples and fecal homogenates were stored at −70° C. until metabolite analysis.
All urine samples were analyzed for metabolite profiles. Aliquots of 0.5 mL urine were centrifuged at 3500 rpm and 4° C. in a Sorvall Super 21 centrifuge for 10 minutes. The supernatant was transferred to a fresh tube and analyzed for radioactivity content and by HPLC for profiling. Selected samples were also analyzed by LC/MS to characterize the radioactive peaks.
as §2, with “β Model 525 radioactivity flow” for “β Model 515 radioactivity flow”, “fluid was 1 mL/min, providing” for “fluid was 3 mL/min, providing”, “phase of 5:1. Separation of” for “phase of 3:1. Separation of”, “C18(2) column, 150×2.0 mm, 5” for “C18(2) column, 250×4.6 mm, 5”, “acetate, pH 6.0, and mobile” for “acetate, pH 5.5, and mobile”, “rate was 0.2 mL/min.” for “rate was 1 mL/min.”

[4] = includes 0-8 and 8-24 hour time points, 30 mg/kg

Compound: CN(C)CC(c1ccc(O)cc1)C1(O)CCCCC1.O=C(O)CCC(=O)O (centres unmarked) [DVS, O-desmethylvenlafaxine succinate]
- Radioactivity as % of Dose in urine, Mean ± S.D. [1, 4]: 74.8 ± 13.0^b %
- Radioactivity as % of Dose in urine, individual dogs [1, 4]: 85.4% and 63.0% and 86.6% and 64.0%
- Radioactivity as % of Dose in urine, Mean ± S.D. ([1]; includes 0-8 and 8-24 hour time points, listed as [^14C]DVS, 30 mg/kg): 75%
- Compounds Detected by Radiochromatography in urine, percent of total peaks, Mean ± S.D. ([1]; urine 8-24 hours post-dose): 5.8 ± 1.6%
- Compounds Detected by Radiochromatography in urine, percent of total peaks, individual dogs ([1]; urine 8-24 hours post-dose, mean of 2 analyses, 30 mg/kg): 7.9% and 5.7% and 5.4% and 4.0%
- Radioactivity in Whole Blood, Mean ± S.D. ([2]; 1 hr): 8.37 ± 1.45 μg equivalents/mL
- Radioactivity in Plasma, Individual Dogs ([2]; 1 hr): 14.6 μg equivalents/mL and 11.5 μg equivalents/mL and 9.56 μg equivalents/mL and 17.5 μg equivalents/mL
- Radioactivity in Plasma, Mean ± S.D. ([2]; 1 hr): 13.3 μg equivalents/mL and 13.3 ± 3.5 μg equivalents/mL
- Radioactivity in Whole Blood, Individual Dogs ([2]; 1 hr): 8.56 μg equivalents/mL and 8.61 μg equivalents/mL and 6.40 μg equivalents/mL and 9.91 μg equivalents/mL
- Radioactivity in Whole Blood, Mean ± S.D. ([2]; 4 hr): 8.58 ± 0.59 μg equivalents/mL
- Radioactivity in Plasma, Individual Dogs ([2]; 4 hr): 17.0 μg equivalents/mL and 16.8 μg equivalents/mL and 16.5 μg equivalents/mL and 17.1 μg equivalents/mL
- Radioactivity in Plasma, Mean ± S.D. ([2]; 4 hr): 16.9 μg equivalents/mL and 16.9 ± 0.3 μg equivalents/mL
- Radioactivity in Whole Blood, Individual Dogs ([2]; 4 hr): 8.16 μg equivalents/mL and 8.03 μg equivalents/mL and 8.82 μg equivalents/mL and 9.30 μg equivalents/mL
- Radioactivity in Whole Blood, Mean ± S.D. ([2]; 8 hr): 3.84 ± 1.01 μg equivalents/mL
- Radioactivity in Plasma, Individual Dogs ([2]; 8 hr): 4.51 μg equivalents/mL and 9.12 μg equivalents/mL and 10.2 μg equivalents/mL and 5.87 μg equivalents/mL
- Radioactivity in Plasma, Mean ± S.D. ([2]; 8 hr): 7.43 μg equivalents/mL and 7.43 ± 2.68 μg equivalents/mL
- Radioactivity in Whole Blood, Individual Dogs ([2]; 8 hr): 3.30 μg equivalents/mL and 3.79 μg equivalents/mL and 5.27 μg equivalents/mL and 2.98 μg equivalents/mL
- Radioactivity in Whole Blood, Mean ± S.D. ([2]; 24 hr): 0.48 ± 0.20 μg equivalents/mL
- Radioactivity in Plasma, Individual Dogs ([2]; 24 hr): 0.66 μg equivalents/mL and 0.86 μg equivalents/mL and 1.14 μg equivalents/mL and 0.56 μg equivalents/mL
- Radioactivity in Plasma, Mean ± S.D. ([2]; 24 hr): 0.81 μg equivalents/mL and 0.81 ± 0.25 μg equivalents/mL
- Radioactivity in Whole Blood, Individual Dogs ([2]; 24 hr): 0.38 μg equivalents/mL and 0.47 μg equivalents/mL and 0.75 μg equivalents/mL and 0.31 μg equivalents/mL
- Compounds Detected by Radiochromatography in urine (Mean ± S.D., n = 3), percent of total peaks ([3]; 0-8 hr, female): 20.0 ± 3.5%
- Radioactivity as % of Dose in urine, Mean ± S.D. ([3]; 0-8 hr, female): 54.5 ± 12%
- Radioactivity as % of Dose in urine, Individuals ([3]; 0-8 hr, female): 53.8% and 42.7% and 67.1%
- Compounds Detected by Radiochromatography in urine (Mean ± S.D., n = 3), percent of total peaks ([3]; 0-8 hr, male): 10.9 ± 2.1%
- Radioactivity as % of Dose in urine, Mean ± S.D. ([3]; 0-8 hr, male): 59.1 ± 7.9%
- Radioactivity as % of Dose in urine, Individuals ([3]; 0-8 hr, male): 60.1% and 50.7% and 66.5%
- Compounds Detected by Radiochromatography in urine (Mean ± S.D., n = 3), percent of total peaks ([3]; 8-24 hr, male): 9.1 ± 1.1%
- Radioactivity as % of Dose in urine, Mean ± S.D. ([3]; 8-24 hr, male): 25.5 ± 6.4%
- Radioactivity as % of Dose in urine, Individuals ([3]; 8-24 hr, male): 24.6% and 32.3% and 19.7%
- % of the radioactive dose recovered in urine ([3]; within 24 hours post-dose): 85%
- % of the radioactive dose recovered in urine ([3]; within the first 8 hours post-dose): greater than 50%
